# Experimental data taken from patent US20100004333A1, “COMPOSITIONS AND METHODS FOR TREATING CARDIOVASCULAR DISORDERS” (priority 2004, published 2010).
# Marks after values point to notes of the source that are not given here.
# Legend:
# [1] = Oxidation of probucol or DTBP in hexane by 1e- and 2e-oxidants (HPLC, ion exchange chromatography); assay type: physicochemical; conditions: compound 1 mM in hexane, 60 min, 37° C.
# [2] = mouse, in vivo
# Description: The quantity of probucol, BP, and DPQ in aortic homogenates was determined by gradient reverse-phase high-pressure liquid chromatography (HPLC) as described in FASEB Journal 1999, 13:667-675.
# apoE−/− mice [3] = assay: Atherosclerotic lesion size (morphometry) in apoE−/− mice on high fat diet with or without probucol; assay type: in vivo; conditions: 24 weeks
# Description: (§1) Male C57BL/6J mice, homozygous for the disrupted apoE gene (apoE−/−) and originally purchased from Jackson Laboratories (Bar Harbor, Me.), were used at 8-10 weeks of age and then fed for 24 weeks ad libitum a high fat diet containing 21.2 (w/w) fat and 0.15% (w/w) cholesterol (specifications of the Harlan Teklad diet TD88137), without (controls, 103 mice) or with probucol (1% w/w, 87 mice), as described in Arteriosclerosis Thrombosis and Vascular Biology 2000, 20:e26-e33. The local animal ethics committee approved the study.
# (§2) Procedures were carried out as described in Arteriosclerosis Thrombosis and Vascular Biology 2000, 20:e26-e33. For biochemistry, hearts and aortas past the femoral bifurcation were excised carefully (n=86 and 70 for control and probucol animals, respectively), cleaned, placed immediately in ice-cold buffer containing protease inhibitors and antibiotics, and then stored at −80° C. For histology, separate mice (n=17 each, for controls and probucol) were perfusion fixed, the hearts and aortas dissected and processed for blinded morphometry at the sinus, arch and descending thoracic and abdominal aorta, precisely as described in Arteriosclerosis Thrombosis and Vascular Biology 2000, 20:e26-e33. Mean areas from thoracic and abdominal aortas were similar and therefore combined and presented as a single value. For histology, sections at the sinus were taken ˜200 μm from the first appearance of the leaflets. Sections at the thoracic and abdominal aorta were taken at the branch point of the 3rd pair of intra-costal arteries and the celiac artery, respectively.
# Data on lesion size are presented as mean±SEM and the effects of probucol analysed by the Mann-Whitney U-test. Biochemical parameters were compared using a one-way ANOVA or Mann-Whitney U-test. Data on total cell numbers, macrophages and collagen content are expressed as mean±SD, and significant differences between means evaluated using the Student's t-test. Statistical significance was accepted at p<0.05.
# [4] = versus 10.8 for octanol; cited from earlier work
# apoE−/− mice [5] = assay: Aortic biochemistry (non-oxidized lipids, α-tocopherol, oxidized lipids) in aortic segments of apoE−/− mice; assay type: in vivo; conditions: 1% probucol, 24 weeks, mean ± SD; for Lipids: C: 4 pools; for Oxidized lipids: F2-isoprostanes / Oxidized lipids: F2-isoprostanes per arachidonate: ten sections
# Description: as §1, §2
# For F2-isoprostanes, the thawed aortic segment (≈20 mg wet weight) was blotted dry, weighed and F2-isoprostanes analyzed by electron capture negative ionization GC/MS after solid-phase extraction and HPLC purification as described in Analytical Biochemistry 1999, 268:117-125, using [D4]-8-iso-prostaglandin F2α (Cayman Chemical) as internal standard. For arachidonate, phospholipids were separated by thin-layer chromatography, the fatty acid methyl esters then prepared and analyzed by GLC, as described in American Journal of Clinical Nutrition 2000, 71:1085-1094.
# For other analytes, pooled aortic segments were homogenized and extracted as described in Journal of Lipid Research 1999, 40:1104-1112, and the organic phase analysed by HPLC with electrochemical (for α-tocopherol), UV (C and CE) and post-column chemiluminescence detection (CE-OOH) as described in Methods in Enzymology 1999, 299:362-375. CE-OOH were measured as a marker of primary lipoprotein lipid peroxidation as they are the primary and major lipid oxidation products formed in lipoproteins from apoE−/− mice undergoing oxidation in the presence of α-tocopherol. For total cholesterol and 7KC, separate 10 μL and 100 μL aliquots, respectively, of the re-dissolved organic extracts were saponified, and subjected to HPLC as described in Journal of Lipid Research 1997, 38:1730-1745. For 7KC, a silica column (0.46×15 cm, 120 Å, 5 μm, Supelco) with guard column (3 μm particle size) was eluted with hexane/isopropylalcohol/acetonitrile (94.8:4.6:0.6 v/v/v) at 1.0 mL/min and monitored at 234 nm. For all chromatographic analyses, compounds were quantified by area comparison using authentic standards.
smiles,measurement,setting,value
"CC(C)(C)c1cc(SSc2cc(C(C)(C)C)c(O)c(C(C)(C)C)c2)cc(C(C)(C)C)c1O [DTBP, 4,4′-dithiobis(2,6-di-tert-butyl-phenol)]",DPQ Yield,[1]; oxidant AAPH 5 mM,0 ± 0 µM
same,DPQ Yield,[1]; oxidant Ce^4+ 5 mM,89 ± 11 µM
same,Depletion,[1]; oxidant Ce^4+ 5 mM,16 ± 1%
same,DPQ Yield,[1]; oxidant Cu^2+ 5 mM,0 ± 0 µM
same,Depletion,[1]; oxidant Cu^2+ 5 mM,0 ± 0%
same,DPQ Yield,[1]; oxidant Fe^2+/H2O2 5 mM,4.8 ± 3.7 µM
same,Depletion,[1]; oxidant Fe^2+/H2O2 5 mM,1 ± 0%
same,DPQ Yield,[1]; oxidant H2O2 5 mM,0 ± 0 µM
same,Depletion,[1]; oxidant H2O2 5 mM,0 ± 0%
same,DPQ Yield,[1]; oxidant HOCl 5 mM,91 ± 8.7 µM
same,DPQ Yield,[1]; oxidant ONOO^− 5 mM,1.9 ± 0.6 µM
same,Depletion,[1]; oxidant ONOO^− 5 mM,6 ± 1%
same,DPQ Yield,[1]; oxidant PbO2 5 mM,145 ± 8.9 µM
same,Depletion,[1]; oxidant PbO2 5 mM,99 ± 0.4%
CC(C)(Sc1cc(C(C)(C)C)c(O)c(C(C)(C)C)c1)Sc1cc(C(C)(C)C)c(O)c(C(C)(C)C)c1 [probucol],Metabolites (BP and DPQ) relative to parent drug,[2],nearly one third of the drug
same,Lesion size,"apoE−/− mice [3]; Arch, 1% probucol, mean ± SEM, 17 mice",121 ± 27^a μm^2 × 10^−3
same,Lesion size,"apoE−/− mice [3]; Sinus, 1% (w/w) probucol in high fat diet, mean ± SEM, 17 mice",904 ± 56 μm^2 × 10^−3
same,Lesion size,"apoE−/− mice [3]; Thoracic/Abdominal, 1% probucol, mean ± SEM, 17 mice",7 ± 2^a μm^2 × 10^−3
same,Lesion size,"apoE−/− mice [3]; arch, 1% probucol",0.12±0.03 mm^2
same,Inhibition of disease (lesion size) versus control,"apoE−/− mice [3]; arch, 1% probucol, not significant",36%
same,Lesion size,"apoE−/− mice [3]; descending aorta, 1% probucol","7,300±2,400 μm^2"
same,Inhibition of disease (lesion size) versus control,"apoE−/− mice [3]; descending aorta, 1% probucol, p<0.0001",94%
same,Lesion size,"apoE−/− mice [3]; sinus, 1% probucol",0.90±0.56 mm^2
same,Increase in lesion size versus control,"apoE−/− mice [3]; sinus, 1% probucol, p<0.01",33%
same,Partition coefficient between octanol and water,[4],10
same,DPQ Yield,[1]; oxidant AAPH 5 mM,0 ± 0 µM
same,DPQ Yield,[1]; oxidant Ce^4+ 5 mM,78 ± 7.9 µM
same,Depletion,[1]; oxidant Ce^4+ 5 mM,15 ± 2%
same,DPQ Yield,[1]; oxidant Cu^2+ 5 mM,0.9 ± 0.1 µM
same,Depletion,[1]; oxidant Cu^2+ 5 mM,2 ± 1%
same,DPQ Yield,[1]; oxidant Fe^2+/H2O2 5 mM,8.7 ± 1.7 µM
same,Depletion,[1]; oxidant Fe^2+/H2O2 5 mM,3 ± 1%
same,DPQ Yield,[1]; oxidant H2O2 5 mM,0 ± 0 µM
same,Depletion,[1]; oxidant H2O2 5 mM,0 ± 0%
same,DPQ Yield,[1]; oxidant HOCl 5 mM,102 ± 11 µM
same,Depletion,"[1]; oxidant HOCl 5 mM, air",98 ± 4%
same,DPQ Yield,[1]; oxidant ONOO^− 5 mM,2.1 ± 0.2 µM
same,Depletion,[1]; oxidant ONOO^− 5 mM,7 ± 1%
same,DPQ Yield,[1]; oxidant PbO2 5 mM,92 ± 21 µM
same,Depletion,[1]; oxidant PbO2 5 mM,> 90%
same,Depletion,"[1]; oxidant PbO2 5 mM, listed as Probucol",99 ± 1.1%
same,Antioxidants: α-Tocopherol,apoE−/− mice [5]; Arch,1.6 ± 0.3^a nmol/mgp
same,Lipids: C18:2,apoE−/− mice [5]; Arch,33 ± 9^a nmol/mgp
same,Lipids: C20:4,apoE−/− mice [5]; Arch,17 ± 3^a nmol/mgp
same,Oxidized lipids: 7KC,apoE−/− mice [5]; Arch,0.20 ± 0.11 pmol/mgp
same,Oxidized lipids: 7KC/total cholesterol,apoE−/− mice [5]; Arch,0.25 ± 0.20 mmol/mol
same,Oxidized lipids: CE-OOH,apoE−/− mice [5]; Arch,143.8 ± 118.7 pmol/mgp
same,Oxidized lipids: CE-OOH/CE,apoE−/− mice [5]; Arch,2.70 ± 2.04 mmol/mol
same,Lipids: C,apoE−/− mice [5]; Arch,447 ± 71^a nmol/mgp
same,Oxidized lipids: F2-isoprostanes,apoE−/− mice [5]; Arch,0.35 ± 0.11 pmol/mgp
same,Oxidized lipids: F2-isoprostanes per arachidonate,apoE−/− mice [5]; Arch,10.4 ± 3.6 μmol/mol arachidonate
same,Antioxidants: α-Tocopherol,apoE−/− mice [5]; Sinus,3.0 ± 1.2 nmol/mgp
same,Lipids: C18:2,apoE−/− mice [5]; Sinus,61 ± 11 nmol/mgp
same,Lipids: C20:4,apoE−/− mice [5]; Sinus,33 ± 6 nmol/mgp
same,Oxidized lipids: 7KC,apoE−/− mice [5]; Sinus,0.21 ± 0.11 pmol/mgp
same,Oxidized lipids: 7KC/total cholesterol,apoE−/− mice [5]; Sinus,0.16 ± 0.06 mmol/mol
same,Oxidized lipids: CE-OOH,apoE−/− mice [5]; Sinus,88.1 ± 26.6 pmol/mgp
same,Oxidized lipids: CE-OOH/CE,apoE−/− mice [5]; Sinus,0.93 ± 0.12 mmol/mol
same,Lipids: C,apoE−/− mice [5]; Sinus,928 ± 144 nmol/mgp
same,Oxidized lipids: F2-isoprostanes,apoE−/− mice [5]; Sinus,0.39 ± 0.11 pmol/mgp
same,Oxidized lipids: F2-isoprostanes per arachidonate,apoE−/− mice [5]; Sinus,8.6 ± 4.8 μmol/mol arachidonate
same,Antioxidants: α-Tocopherol,apoE−/− mice [5]; Thoracic/Abdominal,1.2 ± 0.2^a nmol/mgp
same,Lipids: C18:2,apoE−/− mice [5]; Thoracic/Abdominal,"10 ± 5^a,b nmol/mgp"
same,Lipids: C20:4,apoE−/− mice [5]; Thoracic/Abdominal,"5.0 ± 1.4^a,b nmol/mgp"
same,Oxidized lipids: 7KC,apoE−/− mice [5]; Thoracic/Abdominal,0.10 ± 0.04 pmol/mgp
same,Oxidized lipids: 7KC/total cholesterol,apoE−/− mice [5]; Thoracic/Abdominal,0.08 ± 0.02 mmol/mol
same,Oxidized lipids: CE-OOH,apoE−/− mice [5]; Thoracic/Abdominal,20.3 ± 8.1 pmol/mgp
same,Oxidized lipids: CE-OOH/CE,apoE−/− mice [5]; Thoracic/Abdominal,1.46 ± 0.72 mmol/mol
same,Lipids: C,apoE−/− mice [5]; Thoracic/Abdominal,215 ± 55^a nmol/mgp
same,Oxidized lipids: F2-isoprostanes,apoE−/− mice [5]; Thoracic/Abdominal,"0.14 ± 0.04^a,b pmol/mgp"
same,Oxidized lipids: F2-isoprostanes per arachidonate,apoE−/− mice [5]; Thoracic/Abdominal,"3.8 ± 1.4^a,b μmol/mol arachidonate"
